Test results published in US20060079453A1, “Hla binding peptides and their uses” (priority 2002, published 2006).
Like-named read-outs stand apart in the source and are kept apart here. No end group written: not given here.

Assays:
Experiment in all cases: biochemical
Type in all cases: binding
HLA-A*2301 = HLA-A*2301 (Homo sapiens, UniProt P04439, D101N/D140Y/D185E/E176V/E190D/F33S/G103R/G107R/H175R/I119L/I121M/I306V/K168Q/K335N/L105A/L300P/N151K/N90K/P307H/Q86E/Q94H/R106L/R138H/R89G/T104I/T345S/V100E/W191G/Y123F)
HLA-A*3002 = HLA-A*3002 (Homo sapiens, UniProt P04439, D101N/D140H/D185E/E176R/F33S/G80R/H175R/K168Q/Q94H/R138E/R41S/V100E)
HLA-A*0201 = HLA-A*0201 (Homo sapiens, UniProt P04439, D140Y/D185E/D98H/E176V/E277Q/G131W/G231S/I119V/I121R/I166T/I218V/L300P/L318F/N151K/N90K/P208A/P217A/Q86G/Q94H/R138H/R169H/T345S)
HLA-A*0202 = HLA-A*0202 (Homo sapiens, UniProt P04439, D140Y/D185E/D98H/E176V/E277Q/G131W/G231S/I119L/I121R/I166T/I218V/L180W/L300P/L318F/N151K/N90K/P208A/P217A/Q67R/Q86G/Q94H/R138H/R169H/T345S)
HLA-A*0203 = HLA-A*0203 (Homo sapiens, UniProt P04439, A173T/D140Y/D185E/D98H/E277Q/G131W/G231S/I119V/I121R/I166T/I218V/L180W/L300P/L318F/N151K/N90K/P208A/P217A/Q86G/Q94H/R138H/R169H/T345S)
HLA-A*6802 = HLA-A*6802 (Homo sapiens, UniProt P04439, A269V/D140Y/D185E/E176V/E277Q/E87N/F33Y/G231S/I121R/I166T/I218V/L180W/L300P/L318F/N151K/P208A/P217A/Q86R/R138H/R169H/S129P/T345S/V36M)
HLA-A*0206 = HLA-A*0206 (Homo sapiens, UniProt P04439, D140Y/D185E/D98H/E176V/E277Q/F33Y/G131W/G231S/I119V/I121R/I166T/I218V/L300P/L318F/N151K/N90K/P208A/P217A/Q86G/Q94H/R138H/R169H/T345S)
[1] = A*0201 binding affinity (expressed as an IC50)
[2] = A*0202 binding affinity (expressed as an IC50)
[3] = A*0203 binding affinity (expressed as an IC50)
[4] = A*6802 binding affinity (expressed as an IC50)
[5] = A*0206 binding affinity (expressed as an IC50)

Row | Compound | IC50 (HLA-A*0201; [1]) [nM] | IC50 (HLA-A*0202; [2]) [nM] | IC50 (HLA-A*0203; [3]) [nM] | IC50 (HLA-A*6802; [4]) [nM] | IC50 (HLA-A*0206; [5]) [nM] | also measured
1 | TYCCKCDSTL | – | – | – | – | – | IC50 (HLA-A*2301; read-out: A*2301 binding affinity (IC50)): 30 nM
2 | MYVGPGPGSVF | – | – | – | – | – | IC50 (HLA-A*3002; A*3002 binding affinity (IC50)): 28.2 µM; IC50 (HLA-A*2301): 4.4 nM
3 | CC[C@H](C)[C@H](N)C(=O)N[C@@H](CCSC)C(=O)N[C@H](C(=O)N[C@@H](CC(C)C)C(=O)N[C@@H](CO)C(=O)N[C@@H](Cc1ccccc1)C(=O)N[C@@H](CC(C)C)C(=O)N[C@@H](Cc1ccccc1)C(=O)O)C(C)C | – | – | – | – | – | IC50 (HLA-A*3002): 30 µM; IC50 (HLA-A*2301): 7.5 nM
4 | CC(C)C[C@H](NC(=O)[C@@H](N)CCCNC(=N)N)C(=O)N[C@@H](C)C(=O)N[C@@H](Cc1c[nH]cn1)C(=O)N[C@@H](CCC(=O)O)C(=O)N[C@H](C(=O)NCC(=O)N[C@@H](Cc1c[nH]c2ccccc12)C(=O)N[C@@H](CCCCN)C(=O)N[C@@H](Cc1ccc(O)cc1)C(=O)O)C(C)C | – | – | – | – | – | IC50 (HLA-A*3002): 0.0038 µM; IC50 (HLA-A*2301): 4630 nM
5 | QLVGPGPGMEV | 865 | 17 | 19 | 223 | 919 | –
6 | YTPGPGIRYPV | 7760 | 1990 | 11100 | 9.2 | 1110 | –
7 | YLLGPGPGGI | 180 | 12 | 3.3 | 2060 | 89 | –
8 | YVDDVVLGV | 18 | 14 | 70 | 354 | 16 | –
9 | LLGPGPGV | 25 | 49 | 123 | 5620 | 93 | –
10 | KLTPLCVSL | 67 | 2.4 | 240 | 5950 | 16 | –
11 | VLVHPQWVV | 464 | 65 | 1990 | 14600 | 3220 | –
12 | VLAEAMSQT | – | – | – | – | – | IC50 (HLA-A*0201): 290 nM; IC50 (HLA-A*0202): 2.2 nM; IC50 (HLA-A*0203): 0.65 nM; IC50 (HLA-A*6802): 447 nM; IC50 (HLA-A*0206): 236 nM
13 | MTGNPPVPV | 2020 | 158 | 23 | 0.84 | 35 | –
14 | MTGNPSIPV | – | – | – | – | – | IC50 (HLA-A*0201): 16 nM; IC50 (HLA-A*0202): 1.1 nM; IC50 (HLA-A*0203): 0.43 nM; IC50 (HLA-A*6802): 0.57 nM; IC50 (HLA-A*0206): 257 nM
15 | VVQAGFFLV | 440 | 79 | 2500 | 617 | 81 | –
16 | FLKEKGGLDGV | – | – | – | – | – | IC50 (HLA-A*0201): 332 nM; IC50 (HLA-A*0202): 3.7 nM; IC50 (HLA-A*0203): 11 nM; IC50 (HLA-A*6802): 3810 nM; IC50 (HLA-A*0206): 3210 nM
17 | QLFEDKYAL [QLFEDKYAL] | 646 | 1.8 | 380 | 2980 | 2010 | –
18 | VLAEAMSKV | 230 | 1.8 | 1.4 | 329 | 93 | –
19 | YLGPGPGAGI | 161 | 1 | 4.2 | 315 | 548 | –
20 | RTLHDLCQA | 8120 | 34 | 678 | 61600 | 96 | –

Row | Compound | IC50 (HLA-A*0201; [1]) [nM] | IC50 (HLA-A*0202; [2]) [nM] | IC50 (HLA-A*0203; [3]) [nM] | IC50 (HLA-A*6802; [4]) [nM] | IC50 (HLA-A*0206; [5]) [nM] | also measured
21 | KLTPFCVTL | – | – | – | – | – | IC50 (HLA-A*0201): 87 nM; IC50 (HLA-A*0202): 0.37 nM; IC50 (HLA-A*0203): 28 nM; IC50 (HLA-A*6802): 11800 nM; IC50 (HLA-A*0206): 78 nM
22 | MTSNPPIPV | 53 | 16 | 0.39 | 3.8 | 250 | –
23 | VLAKEGPGPGL | 1890 | 6.9 | 37 | 51000 | 59000 | –
24 | VLAGPGPGVTL | 1120 | 2.4 | 94 | 2640 | 7200 | –
25 | SLLGPGPGAV | 95 | 17 | 2.6 | 795 | 642 | –
26 | LLLPPLERLTL | – | – | – | – | – | IC50 (HLA-A*0201): 34 nM; IC50 (HLA-A*0202): 2610 nM; IC50 (HLA-A*0203): 9010 nM; IC50 (HLA-A*6802): > 12800 nM; IC50 (HLA-A*0206): 45 nM
27 | EILDLWVYHV | – | – | – | – | – | IC50 (HLA-A*0201): 496 nM; IC50 (HLA-A*0202): 569 nM; IC50 (HLA-A*0203): 1870 nM; IC50 (HLA-A*6802): 163 nM; IC50 (HLA-A*0206): 2230 nM
28 | KITPLCVTL | 461 | 36 | 528 | 883 | 59 | –
29 | YLLTLWKAGI | – | – | – | – | – | IC50 (HLA-A*0201): 20 nM; IC50 (HLA-A*0202): 19 nM; IC50 (HLA-A*0203): 20 nM; IC50 (HLA-A*6802): 1390 nM; IC50 (HLA-A*0206): 40 nM
30 | VLRLFVCFLI | 2740 | 2110 | 299 | 45600 | 68200 | –
31 | WLSGPGPGV | 220 | 2.5 | 12 | 24 | 885 | –
32 | PVPLQLPPV | – | – | – | – | – | IC50 (HLA-A*0201): 10000 nM; IC50 (HLA-A*0202): > 7340 nM; IC50 (HLA-A*0203): 12600 nM; IC50 (HLA-A*6802): > 15600 nM; IC50 (HLA-A*0206): 81 nM
33 | GVLGWSPQV | – | – | – | – | – | IC50 (HLA-A*0201): 22 nM; IC50 (HLA-A*0202): 157 nM; IC50 (HLA-A*0203): 389 nM; IC50 (HLA-A*6802): 9430 nM; IC50 (HLA-A*0206): 28 nM
34 | RYQDPQNYEL | – | – | – | – | – | IC50 (HLA-A*2301): 124 nM
35 | VLAEAMSRA | – | – | – | – | – | IC50 (HLA-A*0201): 127 nM; IC50 (HLA-A*0202): 0.88 nM; IC50 (HLA-A*0203): 1 nM; IC50 (HLA-A*6802): 229 nM; IC50 (HLA-A*0206): 20 nM
36 | ELVSEFSRV | 8180 | 969 | 53 | 23 | 197 | –
37 | DFFLKSKFNI | – | – | – | – | – | IC50 (HLA-A*2301): 304 nM
38 | MLLSVPLLL | 9 | 79 | 41 | 24600 | 8.4 | –
39 | YLLTGPGPGI | 42 | 15 | 59 | 5680 | 60 | –
40 | FMGVIYIMI | 13 | 2.1 | 26 | 14500 | 98 | –
